Numbers after ± are expanded uncertainties.
Experiment: xn = mol fraction of the nth substance listed
Conditions: 100 kPa, Liquid, Vibrating tube method, x2 = 0.3333

Q: For `NC(N)=O` [urea] + C[N+](C)(C)CCO.[Cl-], which mass density (293.15 K) is on record?
A: The mass density was 1199.42 ± 1.2 kg/m3.

Q: And the mass density (298.15 K)?
A: Its mass density is 1196.68 ± 1.2 kg/m3.

Q: What about the mass density (303.15 K) of the same compound?
A: The mass density was 1193.96 ± 1.2 kg/m3.

Q: And the mass density (308.15 K)?
A: The mass density was 1191.19 ± 1.2 kg/m3.

Q: What about the mass density (313.15 K) of the same compound?
A: Its mass density is 1188.52 ± 1.2 kg/m3.

Q: And the mass density (318.15 K)?
A: Its mass density is 1185.87 ± 1.2 kg/m3.

Q: And the mass density (323.15 K)?
A: The mass density was 1183.2 ± 1.2 kg/m3.

Q: What about the mass density (328.15 K) of the same compound?
A: Its mass density is 1180.53 ± 1.2 kg/m3.

Q: And the mass density (333.15 K)?
A: Its mass density is 1177.87 ± 1.2 kg/m3.

Q: And the mass density (338.15 K)?
A: The mass density was 1175.22 ± 1.2 kg/m3.

Source: the NIST ThermoML archive (doi:10.1021/acs.jced.9b00145)
